Values of other authors in patent US7262212B2, “2,3-dihydro-6-nitroimidazo[2,1-b]oxazoles” (Otsuka Pharmaceutical Co., Ltd., priority 2002, dated 2007).

System: multi-drug-resistant Mycobacterium tuberculosis
Details: multi-drug-resistant strain; cited from earlier work

For `CCC1Cn2cc([N+](=O)[O-])nc2O1` (stereo not shown) [CGI-17341], the bactericidal action is given as “has a bactericidal action”.
